Experimental data taken from patent US20220168427A1 (Ranok Therapeutics (Hangzhou) Co. Ltd., priority 2019, published 2022).

Key:
BRD4 (BD1+BD2) = target: T1, BRD4 (BD1+BD2) (Homo sapiens, UniProt O60885); conditions: read-out: BRD4 Binding Potency
T1 construct: 1.8 μg/ml recombinant BRD4 (BD1+BD2 domains) protein
Experimental: A master mix was prepared with assay buffer, 1.8 μg/ml recombinant BRD4 (BD1+BD2 domains) protein, and 200-fold dilutions of Tb-labeled donor and dye-labeled acceptor. 40-fold dilutions of acetylated and non-acetylated ligands were prepared in 1×BRD TR-FRET assay buffer. Also, a serial 3-fold dilution of each compound was prepared ranging from 40 μM down until 2.0 nM. In a 384-well plate, 5 μl diluted ligand and 5 μl of compound dilution were added per well to duplicate wells and mixed by brief shaking. Then 10 μl of master mix was added per well, mixed by brief shaking, incubated at 25° C. for 2 hr and fluorescence was measured on an EnVision Plate Reader. The 665 nm/615 nm ratio was calculated from EnVision raw data. Data were normalized using whole-plate averages of “positive” and “negative” readings. A four-parameter “log[inhibitor] vs. response” curve was fitted using GraphPad Prism 7.0.

MV4-11 cells = experiment: MV4-11 Cell Cytotoxicity Assay; assay type: cell-based, human; conditions: human, MV4-11 cells, CCK-8
Description: % Inhibition=100−(D−B)/(S−B)*100%.
S: The absorbance of the maximum (cells with DMSO)
B: The absorbance of the minimum (medium with DMSO)

HSP90α = HSP90α (Homo sapiens, UniProt P07900); experiment: HSP90α Binding Fluorescent Polarization (FP) Assay; conditions: competition with FITC-geldanamycin; read-out: HSP90 Binding Potency
Experimental: HSP90α Binding Fluorescent Polarization (FP) Assay
A master mix was prepared with assay buffer, BSA and FITC-geldanamycin. In a 96-well plate, a serial 3-fold dilution of each compound was prepared ranging from 40 μM down until 2.0 nM. Also in a 96-well plate, recombinant HSP90α protein was diluted to 28 μg/ml. Then, in a 384-well plate, 10 μl of master mix and 5 μl of compound dilution were added per well to duplicate wells and mixed by brief shaking. Then 5 μl of diluted HSP90α protein was added per well, mixed by brief shaking, incubated at 25° C. for 30, 60 and 120 min and fluorescence was measured on an EnVision Plate Reader. Background-subtracted mP values were calculated from EnVision raw data and a four-parameter “log[inhibitor] vs. response” curve was fitted using GraphPad Prism 7.0.

| Compound | IC50 (BRD4 (BD1+BD2)) [nM] | IC50 at 72 h (MV4-11 cells) [nM] | IC50 (HSP90α) [nM] |
| --- | --- | --- | --- |
| CC[C@@H](C)Nc1cc(C(=O)NC2C[C@H]3CC[C@H](C2)N3c2ccc(C(=O)c3ccc(CN4CCN(CC5CCN(C(=O)C[C@@H]6N=C(c7ccc(Cl)cc7)c7c(sc(C)c7C)-n7c(C)nnc76)CC5)CC4)cc3)cn2)c(C)cc1C(N)=O (stereo partly drawn) [Compound 25, 5-(((R)-sec-butyl)amino)-N1-((1R,3r,5S)-8-(5-(4-((4-((1-(2-((S)-4-(4-chlorophenyl)-2,3,9-trimethyl-6H-thieno[3,2-f][1,2,4]triazolo[4,3-a][1,4]diazepin-6-yl)acetyl)piperidin-4-yl)methyl)piperazin-1-yl)methyl)benzoyl)pyridin-2-yl)-8-azabicyclo[3.2.1]octan-3-yl)-2-methylterephthalamide] | 100 to 1000 | 100 to 1000 | > 1000 |
| CC[C@@H](C)Nc1cc(C(=O)NC2C[C@H]3CC[C@H](C2)N3c2ccc(C(=O)Nc3ccc(CN4CCN(CC5CCN(C(=O)C[C@@H]6N=C(c7ccc(Cl)cc7)c7c(sc(C)c7C)-n7c(C)nnc76)CC5)CC4)cc3)cn2)c(C)cc1C(N)=O (stereo partly drawn) [Compound 26, 5-((R)-sec-butylamino)-N1-((1R,5R)-8-(5-((4-((4-((1-(2-((6S)-4-(4-chlorophenyl)-2,3,9-trimethyl-6H-thieno[3,2-f][1,2,4]triazolo[4,3-a][1,4]diazepin-6-yl)acetyl)piperidin-4-yl)methyl)piperazin-1-yl)methyl)phenyl)carbamoyl)pyridin-2-yl)-8-azabicyclo[3.2.1]octan-3-yl)-2-methylterephthalamide, formic acid] | 100 to 1000 | < 100 | > 1000 |
| CCc1cc(-c2nnc(O)n2-c2ccc(CN3CCN(CC4CCN(C(=O)C[C@H]5N=C(c6ccc(Cl)cc6)c6c(sc(C)c6C)-n6c(C)nnc65)CC4)CC3)cc2)c(O)cc1O [Compound 27, 2-((6R)-4-(4-chlorophenyl)-2,3,9-trimethyl-6H-thieno[3,2-f][1,2,4]triazolo[4,3-a][1,4]diazepin-6-yl)-1-(4-((4-(4-(3-(5-ethyl-2,4-dihydroxyphenyl)-5-hydroxy-4H-1,2,4-triazol-4-yl)benzyl)piperazin-1-yl)methyl)piperidin-1-yl)ethanone, trifluoroacetic acid] | > 1000 | < 100 | 100 to 1000 |
| Cc1sc2c(c1C)C(c1ccc(Cl)cc1)=N[C@@H](CC(=O)NCc1ccc(-n3c(S)nnc3-c3cc(C(C)C)c(O)cc3O)cc1)c1nnc(C)n1-2 [Compound 28, (S)-2-(4-(4-chlorophenyl)-2,3,9-trimethyl-6H-thieno[3,2-f][1,2,4]triazolo[4,3-a][1,4]diazepin-6-yl)-N-(4-(3-(2,4-dihydroxy-5-isopropylphenyl)-5-mercapto-4H-1,2,4-triazol-4-yl)benzyl)acetamide] | 100 to 1000 | 100 to 1000 | 100 to 1000 |
| Cc1sc2c(c1C)C(c1ccc(Cl)cc1)=N[C@@H](CC(=O)N1CCN(C(=O)C3CCN(c4ccc(-n5c(O)nnc5-c5cc(C(C)C)c(O)cc5O)cc4)CC3)CC1)c1nnc(C)n1-2 [Compound 29, (S)-2-(4-(4-chlorophenyl)-2,3,9-trimethyl-6H-thieno[3,2-f][1,2,4]triazolo[4,3-a][1,4]diazepin-6-yl)-1-(4-(1-(4-(3-(2,4-dihydroxy-5-isopropylphenyl)-5-hydroxy-4H-1,2,4-triazol-4-yl)phenyl)piperidine-4-carbonyl)piperazin-1-yl)ethan-1-one] | > 1000 | 100 to 1000 | > 1000 |
| Cc1sc2c(c1C)C(c1ccc(Cl)cc1)=N[C@@H](CC(=O)NCCOc1ccc(-n3c(S)nnc3-c3cc(C(C)C)c(O)cc3O)cc1)c1nnc(C)n1-2 [Compound 32, (S)-2-(4-(4-chlorophenyl)-2,3,9-trimethyl-6H-thieno[3,2-f][1,2,4]triazolo[4,3-a][1,4]diazepin-6-yl)-N-(2-(4-(3-(2,4-dihydroxy-5-isopropylphenyl)-5-mercapto-4H-1,2,4-triazol-4-yl)phenoxy)ethyl)acetamide] | > 1000 | 100 to 1000 | 100 to 1000 |
| Cc1sc2c(c1C)C(c1ccc(Cl)cc1)=N[C@@H](CC(=O)NCCOCCOc1ccc(-n3c(S)nnc3-c3cc(C(C)C)c(O)cc3O)cc1)c1nnc(C)n1-2 [Compound 33, (S)-2-(4-(4-chlorophenyl)-2,3,9-trimethyl-6H-thieno[3,2-f][1,2,4]triazolo[4,3-a][1,4]diazepin-6-yl)-N-(2-(2-(4-(3-(2,4-dihydroxy-5-isopropylphenyl)-5-mercapto-4H-1,2,4-triazol-4-yl)phenoxy)ethoxy)ethyl)acetamide] | 100 to 1000 | 100 to 1000 | 100 to 1000 |
| Cc1sc2c(c1C)C(c1ccc(Cl)cc1)=N[C@@H](CC(=O)NCCOCCOCCOc1ccc(-n3c(S)nnc3-c3cc(C(C)C)c(O)cc3O)cc1)c1nnc(C)n1-2 [Compound 34, (S)-2-(4-(4-chlorophenyl)-2,3,9-trimethyl-6H-thieno[3,2-f][1,2,4]triazolo[4,3-a][1,4]diazepin-6-yl)-N-(2-(2-(2-(4-(3-(2,4-dihydroxy-5-isopropylphenyl)-5-mercapto-4H-1,2,4-triazol-4-yl)phenoxy)ethoxy)ethoxy)ethyl)acetamide] | > 1000 | 100 to 1000 | > 1000 |
| Cc1sc2c(c1C)C(c1ccc(Cl)cc1)=N[C@@H](CC(=O)NCCOCCN1CCC(Cc3ccc(-n4c(O)nnc4-c4cc(C(C)C)c(O)cc4O)cc3)CC1)c1nnc(C)n1-2 [Compound 37, 2-((6S)-4-(4-chlorophenyl)-2,3,9-trimethyl-6H-thieno[3,2-f][1,2,4]triazolo[4,3-a][1,4]diazepin-6-yl)-N-(2-(2-(4-(4-(3-(2,4-dihydroxy-5-isopropylphenyl)-5-hydroxy-4H-1,2,4-triazol-4-yl)benzyl)piperidin-1-yl)ethoxy)ethyl)acetamide, trifluoroacetic acid] | < 100 | 100 to 1000 | < 100 |
| Cc1sc2c(c1C)C(c1ccc(Cl)cc1)=N[C@@H](CC(=O)N1CCN(Cc3ccc(-n4c(O)nnc4-c4cc(C(C)C)c(O)cc4O)cc3)CC1)c1nnc(C)n1-2 [Compound 38, 2-((6S)-4-(4-chlorophenyl)-2,3,9-trimethyl-6H-thieno[3,2-f][1,2,4]triazolo[4,3-a][1,4]diazepin-6-yl)-1-(4-(4-(3-(2,4-dihydroxy-5-isopropylphenyl)-5-hydroxy-4H-1,2,4-triazol-4-yl)benzyl)piperazin-1-yl)ethanone, trifluoroacetic acid] | > 1000 | < 100 | 100 to 1000 |
| Cc1sc2c(c1C)C(c1ccc(Cl)cc1)=N[C@@H](CC(=O)NCCc1ccc(-n3c(O)nnc3-c3cc(C(C)C)c(O)cc3O)cc1)c1nnc(C)n1-2 [Compound 39, 2-((6S)-4-(4-chlorophenyl)-2,3,9-trimethyl-6H-thieno[3,2-f][1,2,4]triazolo[4,3-a][1,4]diazepin-6-yl)-N-(4-(3-(2,4-dihydroxy-5-isopropylphenyl)-5-hydroxy-4H-1,2,4-triazol-4-yl)phenethyl)acetamide] | 100 to 1000 | < 100 | 100 to 1000 |
| Cc1sc2c(c1C)C(c1ccc(Cl)cc1)=N[C@@H](CC(=O)N1CCC(CN3CCN(c4ccc(-n5c(O)nnc5-c5cc(C(C)C)c(O)cc5O)cc4)CC3)CC1)c1nnc(C)n1-2 [Compound 41, (S)-2-(4-(4-chlorophenyl)-2,3,9-trimethyl-6H-thieno[3,2-f][1,2,4]triazolo[4,3-a][1,4]diazepin-6-yl)-1-(4-((4-(4-(3-(2,4-dihydroxy-5-isopropylphenyl)-5-hydroxy-4H-1,2,4-triazol-4-yl)phenyl)piperazin-1-yl)methyl)piperidin-1-yl)ethanone] | 100 to 1000 | < 100 | 100 to 1000 |
| Cc1sc2c(c1C)C(c1ccc(Cl)cc1)=N[C@@H](CC(=O)N1CCC(N3CCN(Cc4ccc(-n5c(O)nnc5-c5cc(C(C)C)c(O)cc5O)cc4)CC3)CC1)c1nnc(C)n1-2 [Compound 42, (S)-2-(4-(4-chlorophenyl)-2,3,9-trimethyl-6H-thieno[3,2-f][1,2,4]triazolo[4,3-a][1,4]diazepin-6-yl)-1-(4-(4-(4-(3-(2,4-dihydroxy-5-isopropylphenyl)-5-hydroxy-4H-1,2,4-triazol-4-yl)benzyl)piperazin-1-yl)piperidin-1-yl)ethan-1-one, trifluoroacetic acid] | 100 to 1000 | < 100 | 100 to 1000 |
